Measured values from US8933029B2, “Antimicrobial and anti-inflammatory peptides” (Carrus Capital Corporation, priority 2001, dated 2015).
Marks after values point to notes of the source that are not given here. Ends that are not written are not given here.

Legend:
TPA-induced ear edema = assay: TPA ear edema model; details: for Topical Dose (% change vs. vehicle) 1.0%: topical 1.0%; for Topical Dose (% change vs. vehicle) 1.0% / Topical Dose (% change vs. vehicle) 0.1% / Topical Dose (% change vs. vehicle) 5 0%: ear biopsy weight six hours after TPA; for Systemic Dose (% change vs. vehicle) 5 mg/kg: systemic 5 mg/kg; for Topical Dose (% change vs. vehicle) 0.1%: topical 0.1%; for Topical Dose (% change vs. vehicle) 5 0%: topical 5 0%
[1] = tested on: oxazolone contact hypersensitivity (ear inflammation); assay: Oxazolone contact hypersensitivity model; assay type: in vivo, CD-1 mice; details: Dosage of 0.1%, applied to ear one hour after oxazolone challenge, ear punch weight after 24 h, 70% EtOH/30% propylene glycol vehicle
Procedure: Briefly, a 3.0% (w/v) solution of oxazolone in acetone/corn oil (5:1) is applied topically to the skin on the shaved abdomens of mice of approximately the same weight and approximately the same age on day 0. […] Twenty-four hours later a dermal biopsy punch of the treated ear is taken and weighed.
CD-1 mice are treated with 3% oxazolone (Sigma) (30 mg/ml) in corn oil:acetone on a shaved abdomen. All solutions are sonicated for 7 minutes. Five days later, the mice are challenged with a 2% oxazolone (20 mg/ml) in acetone on the left ear, with the right ear being left untreated (control). One hour after challenge, the candidate peptide in a 70% EtOH/30% propylene glycol formulation (vehicle) was applied to the left ear, with the right ear being left untreated. After 24 h, 7 mm ear punches are taken from each ear of the mice. The ear punches are placed on a scale and the difference between the treated and untreated ears were compared. The percent inhibition of inflammation was calculated by comparing the mean of each treated group to the control group. The positive control is hydrocortisone (a known anti-inflammatory agent). Most of the indolicidin peptides inhibited inflammation as well as hydrocortisone.

IL-2 = assay: Inhibition of cytokine production in PHA-activated PBLs (ELISA); assay type: cell-based; details: human PBLs, 10 μg/ml PHA, 48 hours, supernatant ELISA
Procedure: (§1) Briefly, human PBLs are collected from a subject and plated at 10^6 cells/ml in serum free lymphocyte growth medium, stimulated with 10 μg/ml phytohemagglutinin (PHA) in the presence or absence of the candidate peptide. The PBLs are incubated at 37° C. at 5% CO2 for 48 h, at which point the supernatants were collected. An ELISA is performed on the supernatants to detect a cytokine of interest (e.g., IL-1, TNF-α, IFN-γ) and the cells are incubated for another 72 h to measure proliferation (see, e.g., Sigusch et al., J. Periodontol. 69:1098, 1998).
(§2) Human peripheral blood lymphocytes (PBLs) were collected from a healthy adult […] and plated at 10^6 cells/ml in serum free lymphocyte growth media in a 96-well plate. The PBLs were stimulated with 10 μg/ml PHA in the presence or absence of test sample and incubated at 37° C. at 5% CO2 for 48 hours. Collected and pooled supernatants were stored at −20° C., then assayed with commercially available ELISA kits (Endogen and Biosource) and assayed for viability with LDH (Bochringer Mannheim). The cells remaining after supernatant removal were returned to the incubator and proliferation was determined at 72 hours by using AlamarBlue (Alamar Bioscience). Compounds were tested at 1, 10, 100 and 1000 μg/ml. The peptides were effective at inhibiting cytokine production and PBL proliferation (Table 4), which indicates these peptides can function as anti-inflammatory agents.

IL-6 = assay: as above; assay type: cell-based; details: human PBLs, 10 μg/ml PHA, 48 hours, supernatant ELISA
Procedure: as §1, §2

IL-4 = assay: as above; assay type: cell-based; details: human PBLs, 10 μg/ml PHA, 48 hours, supernatant ELISA
Procedure: as §1, §2

IL-1α = assay: as above; assay type: cell-based; details: human PBLs, 10 μg/ml PHA, 48 hours, supernatant ELISA
Procedure: as §1, §2

TNFα = assay: as above; assay type: cell-based; details: human PBLs, 10 μg/ml PHA, 48 hours, supernatant ELISA
Procedure: as §1, §2

IL-12 = assay: as above; assay type: cell-based; details: human PBLs, 10 μg/ml PHA, 48 hours, supernatant ELISA
Procedure: as §1, §2

IFNγ = assay: as above; assay type: cell-based; details: human PBLs, 10 μg/ml PHA, 48 hours, supernatant ELISA
Procedure: as §1, §2

IL-10 = assay: as above; assay type: cell-based; details: human PBLs, 10 μg/ml PHA, 48 hours, supernatant ELISA
Procedure: as §1, §2

[2] = formulated in 50% ethanol/5 mM lactate buffer (*)

ILRWVWWVWRRK-NH2 [Peptide 11F4CN, I L R W V W W V W R R K]
Topical Dose (% change vs. vehicle) 1.0% (TPA-induced ear edema; formulated in 95% ethanol): −55%

L R F L K W A F R L W K L (LRFLKWAFRLWKL-{CN}) [Peptide 11J45CN]
Topical Dose (% change vs. vehicle) 1.0% (TPA-induced ear edema; formulated in 95% ethanol): −69%

R L G G G G G G R R (RLGGGGGGRR-{CN}) [Peptide 11F83CN]
Topical Dose (% change vs. vehicle) 1.0% (TPA-induced ear edema; formulated in 95% ethanol): −28%

R L L V W W V L R R (RLLVWWVLRR-{CN}) [Peptide 11F82CN]
Topical Dose (% change vs. vehicle) 1.0% (TPA-induced ear edema; formulated in 95% ethanol): −62%

R L W V V V V W R R (RLWVVVVWRR-{CN}) [Peptide 11F65CN]
Systemic Dose (% change vs. vehicle) 5 mg/kg (TPA-induced ear edema): −15% | Topical Dose (% change vs. vehicle) 1.0% (TPA-induced ear edema; formulated in 95% ethanol): −94%

R L W V W W V W (RLWVWWVW-{CN}) [Peptide 11F11CN]
Topical Dose (% change vs. vehicle) 0.1% (TPA-induced ear edema; [2]): −49* % | Topical Dose (% change vs. vehicle) 1.0% (TPA-induced ear edema; [2]): −75* % | Topical Dose (% change vs. vehicle) 1.0% (TPA-induced ear edema; formulated in 95% ethanol): −87%

R L W W Q Q W W R R (RLWWQQWWRR-{CN}) [Peptide 11F60CN]
Topical Dose (% change vs. vehicle) 1.0% (TPA-induced ear edema; formulated in 95% ethanol): −41%

RLVVWVVWRR-NH2 [Peptide 11F66CN, R L V V W V V W R R]
% Inhibition of Inflammation [1]: 79.85% | Topical Dose (% change vs. vehicle) 0.1% (TPA-induced ear edema; [2]): −17* % | Topical Dose (% change vs. vehicle) 1.0% (TPA-induced ear edema; [2]): −64* % | Topical Dose (% change vs. vehicle) 5 0% (TPA-induced ear edema; [2]): −81* % | IC50 IL-2 (IL-2): 480 µg/mL | IC50 IL-6 (IL-6): 1 µg/mL | IC50 IL-4 (IL-4): >1000 µg/mL | IC50 IL-1α (IL-1α): >1000 µg/mL | IC50 TNFα (TNFα): 110 µg/mL | IC50 IL-12 (IL-12): 280 µg/mL | IC50 IFNγ (IFNγ): 125 µg/mL | IC50 IL-10 (IL-10): 40 µg/mL

RLVVWVVWRRX-OH [Peptide 11F110]
Topical Dose (% change vs. vehicle) 0.1% (TPA-induced ear edema; [2]): −45* % | Topical Dose (% change vs. vehicle) 1.0% (TPA-induced ear edema; [2]): −83* % | Topical Dose (% change vs. vehicle) 5 0% (TPA-induced ear edema; [2]): −87* %

RLWVWWVWRR-NH2 [Peptide 11F17CN, R L W V W W V W R R]
% Inhibition of Inflammation [1]: 71.60% | IC50 IL-2 (IL-2): >1000 µg/mL | IC50 IL-6 (IL-6): 500 µg/mL | IC50 IL-4 (IL-4): 220 µg/mL | IC50 IL-1α (IL-1α): 45 µg/mL | IC50 TNFα (TNFα): 70 µg/mL | IC50 IL-12 (IL-12): 120 µg/mL | IC50 IFNγ (IFNγ): 93 µg/mL | IC50 IL-10 (IL-10): 18 µg/mL

RLWVWWVWRRK-NH2 [Peptide 11F12CN, R L W V W W V W R R K]
% Inhibition of Inflammation [1]: 86.50% | Topical Dose (% change vs. vehicle) 1.0% (TPA-induced ear edema; formulated in 95% ethanol): −56% | IC50 IL-2 (IL-2): 570 µg/mL | IC50 IL-6 (IL-6): 140 µg/mL | IC50 IL-4 (IL-4): 325 µg/mL | IC50 IL-1α (IL-1α): 500 µg/mL | IC50 TNFα (TNFα): 68 µg/mL | IC50 IL-12 (IL-12): 120 µg/mL | IC50 IFNγ (IFNγ): 250 µg/mL | IC50 IL-10 (IL-10): 30 µg/mL

W (Dab) W W (Dab) P (Dab) W (Dab) W P (Dab) W [Peptide 11J68CN]
Topical Dose (% change vs. vehicle) 1.0% (TPA-induced ear edema; [2]): −55* % | Topical Dose (% change vs. vehicle) 5 0% (TPA-induced ear edema; [2]): −85* %

W (Orn) W W (Orn) P (Orn) W (Orn) W P (Orn) W [Peptide 11J67CN]
Topical Dose (% change vs. vehicle) 1.0% (TPA-induced ear edema; [2]): −33* % | Topical Dose (% change vs. vehicle) 5 0% (TPA-induced ear edema; [2]): −66* %

W R L L K L A L R L L K W (WRLLKLALRLLKW-{CN}) [Peptide 11J44CN]
Systemic Dose (% change vs. vehicle) 5 mg/kg (TPA-induced ear edema): −32% | Topical Dose (% change vs. vehicle) 1.0% (TPA-induced ear edema; formulated in 95% ethanol): −88%

WRWWKPKWRWPKW-NH2 [Peptide 11J02CN, W R W W K P K W R W P K W]
% Inhibition of Inflammation [1]: 58.12% | Topical Dose (% change vs. vehicle) 1.0% (TPA-induced ear edema; formulated in 95% ethanol): −44% | IC50 IL-2 (IL-2): >1000 µg/mL | IC50 IL-6 (IL-6): 510 µg/mL | IC50 IL-4 (IL-4): 115 µg/mL | IC50 IL-1α (IL-1α): 7 µg/mL | IC50 TNFα (TNFα): 34 µg/mL | IC50 IL-12 (IL-12): 34 µg/mL | IC50 IFNγ (IFNγ): 45 µg/mL | IC50 IL-10 (IL-10): 23 µg/mL

WRWWKVAWRWVKW-NH2 [Peptide 11J30CN, W R W W K V A W R W V K W]
% Inhibition of Inflammation [1]: 94.15% | Topical Dose (% change vs. vehicle) 1.0% (TPA-induced ear edema; formulated in 95% ethanol): −26% | IC50 IL-2 (IL-2): >1000 µg/mL | IC50 IL-6 (IL-6): 4 µg/mL | IC50 IL-4 (IL-4): 65 µg/mL | IC50 IL-1α (IL-1α): 25 µg/mL | IC50 TNFα (TNFα): 36 µg/mL | IC50 IL-12 (IL-12): 26 µg/mL | IC50 IFNγ (IFNγ): 28 µg/mL | IC50 IL-10 (IL-10): 33 µg/mL

Y R Y Y K P K Y R Y P K Y (YRYYKPKYRYPKY-{CN}) [Peptide 11J32CN]
Topical Dose (% change vs. vehicle) 1.0% (TPA-induced ear edema; formulated in 95% ethanol): −30%
